Test results published in publication PMC11373624, “Development and preclinical characterization of a novel radiotheranostic EphA2-targeting bicyclic peptide” (Theranostics, 2024).
Numbered stars: 1 amine (or outer) side, 2 acyl side, 3 side chain; on linkers, the order of the positions; unused ones are H or OH. Bridge positions count the residues as written; N and C are the ends. Square brackets hold non-standard residues; d marks the D form. Peptide text beside a SMILES is read from it. * marks the point of attachment. DOTA = O=C(O)CN1CCN(CC(=O)O)CCN(CC(=O)*)CCN(CC(=O)O)CC1; TATA = O=C(CC[*:1])N1CN(C(=O)CC[*:2])CN(C(=O)CC[*:3])C1; Hyp = O=C(O)[C@@H]1C[C@@H](O)CN1; hArg = N=C(N)NCCCC[C@H](N)C(=O)O; Cba = N[C@@H](CC1CCC1)C(=O)O; βAla = NCCC(=O)O; Sar = CNCC(=O)O

How the values were obtained:
Mouse EphA2 = target: T1, Mouse EphA2 (Mus musculus, UniProt Q03145); test: SPR binding to mouse EphA2
T1 construct: Fc; purchased R&D Systems 639-A2
Method: (§1) The commercial source details of the recombinant proteins used in SPR were as follows: Human proteins: EphA1 (15789-H02H, Sino Biological), EphA3 (644-A3, R&D Systems), EphA6 (5606-A6, R&D Systems), EphA7 (6756-A7, R&D Systems). Mouse proteins: Mouse EphA2 was purchased from R&D Systems (Product number 639-A2). Mouse EphA2-Fc was resuspended as per manufacturer's recommendations and material was passed through a SuperdexS200 column to remove aggregates.
(§2) SPR experiments were performed on a Biacore 8K+ (Cytiva Life Sciences, USA) instrument, with methods matched for both human and mouse EphA2 protein. Protein was captured on to a Cytiva NTA sensor chip (Cytiva Life Sciences), via the expressed His-tag; this was followed by primary amine coupling chemistry to covalently immobilize the protein to the chip at 25°C. Initially the surface was injected with 0.5 mM NiCl2 for 2 minutes, followed by activation of the carboxymethyl dextran surface for 7 minutes using an injection of a 1:1 ratio of 0.4 M 1-ethyl-3-(3-dimethylaminopropyl) carbodiimide hydrochloride (EDC)/0.1 M N-hydroxy succinimide (NHS) at a flow rate of 10 µL/min.
Human EphA2 protein was captured to the Ni-NTA surface to a level of 200-300 RU and Mouse EphA2 to 500-800 RU; the residual activated groups were then blocked with a 7 minute injection of 1 M ethanolamine (pH 8.5):HBS-N (1:1). […]

Human EphA1 = target: T2, Human EphA1 (Homo sapiens, UniProt P21709); test: SPR homologue panel, EphA1; details: human EphA1, n=1; read-out: KD, no binding up to
T2 construct: purchased Sino Biological 15789-H02H
T2 sequence (P21709 26-547 limits assumed): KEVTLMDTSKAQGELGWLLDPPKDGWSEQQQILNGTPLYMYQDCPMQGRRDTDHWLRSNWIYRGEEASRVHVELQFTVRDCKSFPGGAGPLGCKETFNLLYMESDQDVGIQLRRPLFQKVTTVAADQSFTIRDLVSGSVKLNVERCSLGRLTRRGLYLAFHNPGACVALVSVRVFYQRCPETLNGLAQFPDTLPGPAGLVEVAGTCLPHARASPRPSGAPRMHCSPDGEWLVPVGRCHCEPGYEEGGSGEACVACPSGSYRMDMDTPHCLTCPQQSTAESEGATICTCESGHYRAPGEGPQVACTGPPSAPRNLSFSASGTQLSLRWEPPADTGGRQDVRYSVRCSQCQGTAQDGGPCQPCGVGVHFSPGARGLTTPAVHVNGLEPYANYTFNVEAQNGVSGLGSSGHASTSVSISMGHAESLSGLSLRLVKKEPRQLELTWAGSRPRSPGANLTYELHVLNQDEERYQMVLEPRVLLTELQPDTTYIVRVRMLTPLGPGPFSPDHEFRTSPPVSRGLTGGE
Method: as §1, §2
(§3) Peptide was prepared in PBS/0.05% Tween 20 with a final DMSO concentration of 0.5%. The top peptide concentration was 100 or 500 nM and 5 further 3-fold dilutions. […]

Human EphA4 = Human EphA4 (Homo sapiens, UniProt P54764); test: SPR homologue panel, EphA4; details: human EphA4, n=1; read-out: KD, no binding up to
Human EphA7 = target: T3, Human EphA7 (Homo sapiens, UniProt Q15375); test: SPR homologue panel, EphA7; details: human EphA7, n=1; read-out: KD, no binding up to
T3 construct: purchased R&D Systems 6756-A7
Method: as §1, §2, §3

in vitro = in vitro ADME; details: plasma
Method: To determine binding to plasma proteins, BCY18469 was labeled with ^68Ga (apparent molar activity 1 GBq/µmol). Thereafter, 10 µL of the labeling mixture were added to 100 µL of mouse or human plasma (mouse: BioIVT, United Kingdom, human: Sigma Aldrich, Germany). The mixture was left for 15 min at room temperature. Afterwards, the plasma was loaded into an ultrafiltration device (Amicon Ultra 0.5ml - 30 kDa, Merck, Germany) and centrifuged at 14,000 rpm for 30 min at r.t. The filtrate and the membrane were measured in a gamma counter (Wizard2, Perkin Elmer, Germany). The amount of plasma-bound compound was calculated based on the counts in the […] relative to the total counts (filtrate + membrane).

[1] = male, CD-1 (ICR), mouse, in vivo, iv, 1 mg/kg
Method: (§4) In vivo pharmacokinetic studies were conducted in male CD-1 (ICR) mice, 7-9 weeks of age. […] Serial venous blood samples were taken at 5 min, 15 min, 30 min, 45 min, 1 h, 2 h and 4 h post injection. Samples were immediately transferred into low-binding microcentrifuge tubes containing 2 μL K2-EDTA (0.5 M) as anti-coagulant and kept on ice until processed by centrifugation at 4°C, 3200 g for 10 min. The resulting plasma was transferred into low-binding tubes and the protein precipitated by addition of methanol containing 0.5% Triton X-100 and internal standards (100 ng/mL each of labetalol, tolbutamide, verapamil, dexamethasone, glyburide and celecoxib). Samples were centrifuged at 4°C, 12000 g for 15 min and the supernatant removed, frozen over dry ice and stored at -70°C until LC-MS/MS analysis (Supplementary Materials - Methods). A calibration curve and quality control samples were prepared in the same matrix. Pharmacokinetic parameters were derived from noncompartmental analysis using the intravenous-noncompartmental model 201 (IV bolus input) in Phoenix WinNonlin version 8.3.5 (Certara, USA).

in vivo = details: male, CD-1 (ICR), mouse, iv, 1 mg/kg
Method: as §4

T1 sequence (Q03145 with tags, fused parts or gaps limits assumed): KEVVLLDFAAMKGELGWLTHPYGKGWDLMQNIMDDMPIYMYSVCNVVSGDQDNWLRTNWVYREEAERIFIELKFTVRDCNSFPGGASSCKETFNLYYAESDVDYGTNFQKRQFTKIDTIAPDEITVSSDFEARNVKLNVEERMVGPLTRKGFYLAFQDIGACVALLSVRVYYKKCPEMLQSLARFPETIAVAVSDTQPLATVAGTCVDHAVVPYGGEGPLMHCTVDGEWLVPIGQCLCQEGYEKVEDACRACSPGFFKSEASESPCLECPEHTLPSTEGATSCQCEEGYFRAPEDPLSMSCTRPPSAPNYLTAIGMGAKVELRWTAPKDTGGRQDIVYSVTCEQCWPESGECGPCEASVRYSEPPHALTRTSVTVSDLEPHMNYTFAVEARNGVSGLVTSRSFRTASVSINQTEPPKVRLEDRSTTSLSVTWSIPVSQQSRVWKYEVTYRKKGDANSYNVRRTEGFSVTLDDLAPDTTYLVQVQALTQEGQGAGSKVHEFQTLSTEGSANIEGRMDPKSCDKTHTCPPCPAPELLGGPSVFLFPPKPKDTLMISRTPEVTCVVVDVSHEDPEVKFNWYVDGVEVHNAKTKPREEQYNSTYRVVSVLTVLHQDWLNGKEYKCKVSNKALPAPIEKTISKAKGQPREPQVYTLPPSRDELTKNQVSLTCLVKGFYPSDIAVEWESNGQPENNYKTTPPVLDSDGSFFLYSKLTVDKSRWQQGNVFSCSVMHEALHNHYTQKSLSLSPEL
T3 sequence (Q15375 28-998): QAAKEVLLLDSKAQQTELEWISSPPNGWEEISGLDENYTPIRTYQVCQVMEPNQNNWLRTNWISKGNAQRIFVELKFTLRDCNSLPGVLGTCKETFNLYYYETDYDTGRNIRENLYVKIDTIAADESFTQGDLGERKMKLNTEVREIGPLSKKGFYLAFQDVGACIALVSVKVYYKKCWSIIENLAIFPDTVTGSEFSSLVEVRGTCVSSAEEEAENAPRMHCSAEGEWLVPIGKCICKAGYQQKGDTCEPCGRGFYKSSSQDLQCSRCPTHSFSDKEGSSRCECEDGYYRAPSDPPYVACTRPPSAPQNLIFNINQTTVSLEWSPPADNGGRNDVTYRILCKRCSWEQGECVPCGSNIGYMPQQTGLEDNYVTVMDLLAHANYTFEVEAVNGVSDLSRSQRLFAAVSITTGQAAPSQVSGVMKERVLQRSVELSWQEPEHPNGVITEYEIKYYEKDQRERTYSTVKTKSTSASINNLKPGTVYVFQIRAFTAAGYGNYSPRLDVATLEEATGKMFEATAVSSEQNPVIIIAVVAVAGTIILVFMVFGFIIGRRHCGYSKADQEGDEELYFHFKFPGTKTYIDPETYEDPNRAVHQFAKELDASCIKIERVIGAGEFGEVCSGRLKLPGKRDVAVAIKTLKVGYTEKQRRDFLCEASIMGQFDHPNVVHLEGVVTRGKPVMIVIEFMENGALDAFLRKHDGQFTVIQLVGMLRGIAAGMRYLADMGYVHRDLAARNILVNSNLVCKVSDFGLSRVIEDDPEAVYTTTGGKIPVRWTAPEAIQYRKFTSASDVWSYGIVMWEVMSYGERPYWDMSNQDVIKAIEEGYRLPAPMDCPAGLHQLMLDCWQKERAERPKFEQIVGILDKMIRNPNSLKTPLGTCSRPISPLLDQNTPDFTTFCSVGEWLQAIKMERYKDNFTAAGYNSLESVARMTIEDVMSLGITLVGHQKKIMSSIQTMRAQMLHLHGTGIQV
Human EphA4, sequence (P54764 20-986): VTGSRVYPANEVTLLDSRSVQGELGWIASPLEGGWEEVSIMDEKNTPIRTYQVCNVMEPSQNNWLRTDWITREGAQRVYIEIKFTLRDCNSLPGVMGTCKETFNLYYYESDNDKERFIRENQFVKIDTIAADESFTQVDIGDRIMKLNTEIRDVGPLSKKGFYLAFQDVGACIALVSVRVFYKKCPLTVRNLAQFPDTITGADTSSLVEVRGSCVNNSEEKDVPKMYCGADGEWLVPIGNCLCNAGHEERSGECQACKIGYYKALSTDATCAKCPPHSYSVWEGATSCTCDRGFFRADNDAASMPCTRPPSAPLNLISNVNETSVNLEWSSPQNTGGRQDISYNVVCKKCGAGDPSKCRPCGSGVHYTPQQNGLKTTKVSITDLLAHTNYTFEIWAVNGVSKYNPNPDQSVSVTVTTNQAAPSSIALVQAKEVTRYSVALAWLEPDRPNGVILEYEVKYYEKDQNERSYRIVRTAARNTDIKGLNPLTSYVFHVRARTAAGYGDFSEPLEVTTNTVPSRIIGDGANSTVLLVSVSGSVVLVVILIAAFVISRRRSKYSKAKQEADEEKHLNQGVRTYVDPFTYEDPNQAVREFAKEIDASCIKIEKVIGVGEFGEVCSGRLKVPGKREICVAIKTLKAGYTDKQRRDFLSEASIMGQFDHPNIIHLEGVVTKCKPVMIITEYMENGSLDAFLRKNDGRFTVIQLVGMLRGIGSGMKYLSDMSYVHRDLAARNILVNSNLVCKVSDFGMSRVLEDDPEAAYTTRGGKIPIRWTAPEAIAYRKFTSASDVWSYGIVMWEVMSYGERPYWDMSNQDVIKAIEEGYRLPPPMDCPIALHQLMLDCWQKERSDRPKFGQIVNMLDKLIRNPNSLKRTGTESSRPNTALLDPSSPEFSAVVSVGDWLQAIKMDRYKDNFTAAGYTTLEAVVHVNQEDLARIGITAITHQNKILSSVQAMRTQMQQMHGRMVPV

- Kd (Mouse EphA2; mouse EphA2, 25°C): 0.00382 ± 0.00056 µM
- kon (Mouse EphA2; mouse EphA2, n=2, read-out: ka): 419000 M⁻¹ s⁻¹
- Kd (Human EphA1): > 5 µM
- Kd (Human EphA4): > 5 µM
- Kd (Human EphA7): > 5 µM
- fraction unbound at 15 min (in vitro; human, Plasma protein binding (% bound peptide)): 0.567
- fraction unbound at 15 min (in vitro; mouse): 0.489
- CLp [1]: 24 mL/min/kg
- AUC(0-inf) (in vivo): 701 ng·h/mL
- AUC(0-t) (in vivo): 700 ng·h/mL
- Cmax (in vivo): 3320 ng/mL
- Vd (in vivo): 0.39 L/kg
- half-life (in vivo): 14.4 min
- clearance (in vivo; CLp): 23.9 mL/min/kg
SMILES: CC(C)C[C@@H]1NC(=O)[C@@H]2CSCCC(=O)N3CN(CN(C3)C(=O)CCSC[C@H](NC(=O)[C@H](CC(=O)O)NC(=O)[C@H](CCCCNC(=N)N)NC(=O)[C@H](C)NC(=O)CN(C)C(=O)CN(C)C(=O)CN(C)C(=O)CN(C)C(=O)CN(C)C(=O)CN(C)C(=O)CN(C)C(=O)CN(C)C(=O)CN(C)C(=O)CN(C)C(=O)CCNC(=O)CN3CCN(CC(=O)O)CCN(CC(=O)O)CCN(CC(=O)O)CC3)C(=O)N3C[C@H](O)C[C@H]3C(=O)N[C@@H](CC3CCC3)C(=O)N[C@@H](C(C)C)C(=O)N[C@@H](CC(N)=O)C(=O)N3CCC[C@H]3C(=O)N[C@@H](CC(C)C)C(=O)N2)C(=O)CCSC[C@@H](C(N)=O)NC(=O)[C@H](CCCCNC(=N)N)NC(=O)[C@H](Cc2c[nH]c3ccccc23)NC(=O)[C@@H](CC(=O)O)NC(=O)[C@@H]2CCCN2C(=O)[C@H](Cc2c[nH]cn2)NC1=O [BCY18469, [-DOTA]-[B-Ala]-[Sar10]-Ala-[HArg]-Asp-Cys-[HyP]-[Cba]-Val-Asn-Pro-Leu-Cys-Leu-His-Pro-[dAsp]-Trp-[HArg]-Cys-CONH2] ({DOTA-βAla}-[Sar][Sar][Sar][Sar][Sar][Sar][Sar][Sar][Sar][Sar]A[hArg]DC[Hyp][Cba]VNPLCLHP[dD]W[hArg]C-NH2; linker 14-21-28 via TATA)
